{"source": "paper PMC6628435", "about": "“Chemical Synthesis, Proper Folding, Nav Channel Selectivity Profile and Analgesic Properties of the Spider Peptide Phlotoxin 1” (Toxins, 2019)", "key": {"human Nav1.7": {"biological_target": "T1, human Nav1.7 (Homo sapiens, UniProt Q15858)", "T1 construct": "expressed in transfected cells", "T1 sequence (Q15858 whole entry)": "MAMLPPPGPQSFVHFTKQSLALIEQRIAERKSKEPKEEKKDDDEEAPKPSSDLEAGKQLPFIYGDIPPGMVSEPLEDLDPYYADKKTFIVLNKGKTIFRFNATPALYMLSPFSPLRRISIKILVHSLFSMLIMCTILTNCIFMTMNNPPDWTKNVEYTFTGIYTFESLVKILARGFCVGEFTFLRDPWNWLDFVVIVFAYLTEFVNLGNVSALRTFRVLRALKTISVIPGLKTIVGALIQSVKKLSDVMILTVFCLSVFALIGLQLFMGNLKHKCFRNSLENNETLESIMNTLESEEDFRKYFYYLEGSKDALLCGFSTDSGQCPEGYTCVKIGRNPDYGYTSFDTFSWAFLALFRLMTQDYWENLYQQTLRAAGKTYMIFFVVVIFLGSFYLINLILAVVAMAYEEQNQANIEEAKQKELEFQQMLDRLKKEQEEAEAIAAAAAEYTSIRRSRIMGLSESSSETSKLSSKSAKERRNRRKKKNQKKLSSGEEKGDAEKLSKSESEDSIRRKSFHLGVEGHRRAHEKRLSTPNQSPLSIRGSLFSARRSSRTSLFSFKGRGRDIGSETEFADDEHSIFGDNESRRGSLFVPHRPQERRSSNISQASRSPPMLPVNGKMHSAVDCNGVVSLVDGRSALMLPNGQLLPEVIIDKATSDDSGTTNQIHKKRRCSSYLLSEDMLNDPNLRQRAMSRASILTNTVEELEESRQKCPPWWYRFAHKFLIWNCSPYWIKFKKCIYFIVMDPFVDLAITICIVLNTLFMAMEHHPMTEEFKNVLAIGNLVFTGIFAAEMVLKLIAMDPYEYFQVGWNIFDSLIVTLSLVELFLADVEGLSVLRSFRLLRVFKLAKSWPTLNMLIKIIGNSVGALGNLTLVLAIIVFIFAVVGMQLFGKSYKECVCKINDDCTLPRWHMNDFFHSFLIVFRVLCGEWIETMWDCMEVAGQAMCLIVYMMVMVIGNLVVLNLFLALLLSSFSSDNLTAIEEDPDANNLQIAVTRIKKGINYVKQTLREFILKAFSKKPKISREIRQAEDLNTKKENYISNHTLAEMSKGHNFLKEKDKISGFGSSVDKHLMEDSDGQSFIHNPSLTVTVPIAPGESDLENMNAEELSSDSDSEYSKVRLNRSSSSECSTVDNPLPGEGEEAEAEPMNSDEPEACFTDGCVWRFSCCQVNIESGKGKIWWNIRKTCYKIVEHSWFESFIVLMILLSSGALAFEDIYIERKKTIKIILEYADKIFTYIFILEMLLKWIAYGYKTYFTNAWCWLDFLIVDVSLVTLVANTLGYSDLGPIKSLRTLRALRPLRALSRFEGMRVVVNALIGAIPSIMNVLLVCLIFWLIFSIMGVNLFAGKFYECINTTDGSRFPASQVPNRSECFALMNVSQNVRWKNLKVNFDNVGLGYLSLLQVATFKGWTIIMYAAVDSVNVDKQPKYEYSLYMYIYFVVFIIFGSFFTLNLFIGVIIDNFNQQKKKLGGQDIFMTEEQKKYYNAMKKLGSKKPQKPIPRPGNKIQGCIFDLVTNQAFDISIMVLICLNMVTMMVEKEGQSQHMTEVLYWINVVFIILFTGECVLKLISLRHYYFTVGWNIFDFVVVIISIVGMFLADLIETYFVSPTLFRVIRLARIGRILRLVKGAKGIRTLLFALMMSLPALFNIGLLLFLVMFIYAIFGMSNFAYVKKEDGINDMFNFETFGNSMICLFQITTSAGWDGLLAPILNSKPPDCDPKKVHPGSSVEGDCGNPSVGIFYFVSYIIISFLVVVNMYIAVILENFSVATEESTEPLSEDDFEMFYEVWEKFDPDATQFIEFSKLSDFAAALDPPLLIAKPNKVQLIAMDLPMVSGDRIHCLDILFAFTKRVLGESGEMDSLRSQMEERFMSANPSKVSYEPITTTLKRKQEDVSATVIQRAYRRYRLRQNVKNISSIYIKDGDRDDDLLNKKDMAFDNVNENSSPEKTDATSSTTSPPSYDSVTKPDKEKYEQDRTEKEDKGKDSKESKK", "assay": "Automated patch-clamp (Nanion SyncroPatch 384PE) on CHO cells expressing human Nav1.7", "type": "cell-based", "settings": "for time constant of inhibition: mono-exponential fit", "excerpt": "We used a CHO mammalian cell line expressing the human Nav1.7 instead of Xenopus oocytes for the pharmacological evaluation. […] 100-ms pulses from −100 mV to −10 mV were applied at a frequency of 0.2 Hz and various concentrations of PhlTx1 were applied to the cells. […] Using a manual patch clamp, which is better suited to investigate current recovery from block than an automated patch clamp that requires several washing steps, we investigated the reversibility properties of a PhlTx1 block.\nCHO cells stably expressing the human Nav1.7 cells were cultured in Dulbecco’s Modified Eagle’s Medium (DMEM) supplemented with 10% fetal calf serum, 1 mM pyruvic acid, 4 mM glutamine, 10 IU/mL penicillin and 10 μg/mL streptomycin (Gibco, Grand Island, NY, USA), and incubated at 37 °C in a 5% CO2 atmosphere. For automated patch-clamp recordings, cells were detached with trypsin and floating single cells were diluted (~300,000 cells/mL) in medium contained (in mM): 4 KCl, 140 NaCl, 5 Glucose, 10 HEPES (pH 7.4, osmolarity 290 mOsm).\nChips with single-hole and high-resistance (~6–7 MΩ) were used for CHO cell recordings. Voltage pulses and whole-cell recordings were achieved using the PatchControl384 v1.5.2 software (Nanion, Munich, Germany) and the Biomek v1.0 interface (Beckman Coulter). Prior recordings, dissociated cells were shaken at 60 RPM in a cell hotel reservoir at 10 °C. After cell catching, sealing, whole-cell formation, liquid application, recording, and data acquisition were all performed sequentially and automatically. […] Whole-cell experiments were done at −100 mV holding potential and at room temperature (18–22 °C), while currents triggered at −10 mV test potential were sampled at 20 kHz. Stimulation frequency was set at 0.2 Hz. Toxins were prepared at various concentrations in the extracellular solution, itself supplemented with 0.3% BSA. […] Compound solutions were diluted 3 times in the patch-clamp recording well by adding 30 μL to 60 μL external solution to reach the final reported concentration and the test volume of 90 μL. Percentages of current inhibitions were measured at the end of a 12- to 15-min application time (12-min for fast blocking toxins; 15-min for slow blocking ones). A single concentration of peptide was tested on each cell for building the full-inhibition curves."}, "[1]": {"system": "formalin-induced spontaneous pain behavior", "assay": "Formalin pain test in mice after intrathecal injection", "type": "in vivo, C57BL/6J mice", "settings": "intrathecal, 10 µL; PhlTx1 100 pmoles (n = 5), morphine 0.25 mg (n = 6); 10 µL 5% formalin in hindpaw; versus vehicle"}}, "note": "Bridge positions count the residues as written; N and C are the ends. Peptide text beside a SMILES is read from it.", "data": [{"compound": "CC(C)C[C@@H]1NC(=O)[C@@H](NC(=O)[C@H](C)N)CSSC[C@@H]2NC(=O)[C@@H]3CSSC[C@@H](C(=O)N[C@@H](CCCNC(=N)N)C(=O)N[C@@H](Cc4ccc(O)cc4)C(=O)N[C@@H](CCCCN)C(=O)N[C@@H](CC(C)C)C(=O)N[C@@H](Cc4ccccc4)C(=O)O)NC(=O)[C@H](Cc4c[nH]c5ccccc45)NC(=O)[C@@H]4CCCN4C(=O)[C@H](Cc4ccc(O)cc4)NC(=O)[C@H](CCCCN)NC(=O)[C@H](Cc4c[nH]c5ccccc45)NC(=O)[C@H](CCC(=O)O)NC(=O)[C@H](CSSC[C@H](NC(=O)[C@H](CO)NC(=O)[C@H](CC(=O)O)NC(=O)[C@H](Cc4c[nH]c5ccccc45)NC(=O)[C@H](CCC(N)=O)NC(=O)CNC1=O)C(=O)N[C@@H](CC(=O)O)C(=O)N1CCC[C@H]1C(=O)N[C@@H](CCCCN)C(=O)N[C@@H](C)C(=O)N[C@@H](CO)C(=O)N[C@@H](CCCCN)C(=O)N3)NC(=O)[C@H](C)NC(=O)[C@H](Cc1ccc(O)cc1)NC(=O)[C@H](CC(N)=O)NC(=O)[C@@H]1CCCN1C2=O", "note": "[PhlTx1, Phlotoxin-1] (H-ACLGQWDSCDPKASKCCPNYACEWKYPWCRYKLF-OH; disulfide 2-17, 9-22, 16-29; N-terminus and C-terminus assumed)", "values": [{"measurement": "IC50", "setting": "human Nav1.7", "result": 39, "unit": "nM"}, {"measurement": "time constant of inhibition", "setting": "human Nav1.7; 33 nM, n = 4", "result": 253, "unit": "s"}, {"measurement": "block of Nav1.7 inward current", "setting": "human Nav1.7; 100 nM toxin, end of application (about 12-13 min), CHO hNav1.7", "result": "above 50%"}, {"measurement": "time constant of inhibition (τ)", "setting": "human Nav1.7; 100 nM, mono-exponential fit (PhlTx1 n = 8)", "result": 159, "unit": "s"}, {"measurement": "time constant of inhibition", "setting": "human Nav1.7; 333 nM, n = 6", "result": 97, "unit": "s"}, {"measurement": "c value of mono-exponential decay fit (block not complete)", "setting": "human Nav1.7; 1 μM PhlTx1, normalized current", "result": 0.09}, {"measurement": "time constant of inhibition", "setting": "human Nav1.7; 1 μM, n = 8", "result": 36, "unit": "s"}, {"measurement": "Hill value", "setting": "human Nav1.7; same dose-response fit as IC50, CHO hNav1.7 automated patch-clamp", "result": 1.53}, {"measurement": "highest achievable inhibition", "setting": "human Nav1.7; two most efficient concentrations (333 nM and 1 μM)", "result": "85%–92%"}, {"measurement": "formalin-induced pain behavior (licking), Phase II (inflammation, 10–45 min)", "setting": "[1]", "result": "substantially reduced the response"}, {"measurement": "formalin-induced pain behavior, Phase I (acute pain, 0–10 min)", "setting": "[1]", "result": "substantially reduced the response"}]}]}
